Entries after “also recorded” stand apart in the source; their conditions may differ.
Columns and labels:
HSA [1] = molecular target: T1, HSA (Homo sapiens, UniProt P02768); assay: Displacement of NBD derivatives on HSA by natural fatty acids C6 to C16 (fluorescence); format: binding; settings: ranking among NBD C8, C10 and C12 from the competition experiments
T1 construct: purchased Sigma Aldrich A1887
Procedure: Dilution series for competition experiments with the fatty acids C6 to C16 were diluted with phosphate-buffered saline solution (DPBS buffer). Geometric dilution series of each fatty acid were prepared in 384 well microplates with a starting concentration of 2500 μM and a dilution factor of 0.33 and also 9 dilution steps. The final volume of each concentration was 80 μl. The plated-out fatty acids were stored in the deep freeze (−25° C.) until use.
For displacement experiments 2.50 ml of a 25 μM HSA solution were used per dye derivative. Due to the subsequent dilution steps the HSA concentration was doubled twice such that 2.50 ml of […] solution were prepared.
The dye concentrations were also doubled twice by the following dilution steps. 2.50 ml of each dye solution were needed. 2.10 ml of the respective dye solution were then mixed with 2.10 ml of the 100 μM HSA solution. The respective concentrations of the solutions halve here once. 50 μl of the mixture per well were introduced into a 96 well microplate.
The fatty acid microplates were brought to room temperature and 50 μl each of the dilution series were pipetted into the HSA-dye mixture. The concentrations of all solution constituents were thereby halved once again. In analogy to the experiments measuring the fluorescence of the fluorescence-labelled derivatives without HSA above, the solutions were pipetted from the 96 well microplate into a 384 well microplate. Absorption was not measured. The fluorescence measurement without a wavelength scan was carried out in analogy to the above-referenced experiment.
A concentration of 25 μM and a binding ratio of the NBD derivatives to HSA of 1:1 were employed for the displacement studies. For each dye derivative an NBD-HSA mixture with a concentration of 25 μM was prepared.

amino acid Trp214 of HSA = molecular target: T2, amino acid Trp214 of HSA (Homo sapiens, UniProt P02768); assay: FRET interactions of NBD C12 (17) with Trp214 of HSA; format: binding; settings: for tryptophan emission intensity of HSA after addition of the dye: emission 330 nm, without dye 170/171 FI
T2 construct: purchased Sigma Aldrich A1887
T2 sequence (P02768 25-609): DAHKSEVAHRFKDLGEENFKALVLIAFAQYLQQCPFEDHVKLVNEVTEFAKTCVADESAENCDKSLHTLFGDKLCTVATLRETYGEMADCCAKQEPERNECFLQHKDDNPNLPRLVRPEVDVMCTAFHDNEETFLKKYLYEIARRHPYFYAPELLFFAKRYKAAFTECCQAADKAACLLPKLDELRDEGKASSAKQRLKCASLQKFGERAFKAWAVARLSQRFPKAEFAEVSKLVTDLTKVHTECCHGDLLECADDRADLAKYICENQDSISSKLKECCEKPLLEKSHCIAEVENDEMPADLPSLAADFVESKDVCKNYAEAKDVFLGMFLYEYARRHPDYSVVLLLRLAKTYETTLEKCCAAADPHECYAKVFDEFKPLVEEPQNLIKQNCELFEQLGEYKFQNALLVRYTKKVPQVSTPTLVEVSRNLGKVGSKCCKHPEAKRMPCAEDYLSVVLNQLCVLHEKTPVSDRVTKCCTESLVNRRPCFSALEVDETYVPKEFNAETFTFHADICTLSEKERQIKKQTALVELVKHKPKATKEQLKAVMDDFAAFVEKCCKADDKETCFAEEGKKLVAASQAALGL
Procedure: For determining FRET (Förster resonance energy transfer) interactions of NBD C12 (17) with amino acid Trp214 of HSA, concentrations of a dye-HSA mixture according to Table 8 were applied in an amount of 250 μl for each case.
100 μl of mixture 7 were pipetted into a 96 well microplate and a wavelength scan for the absorption in the range from 250 nm to 700 nm was carried out. In each case 15 μl of the residual solutions 1 to 6 were pipetted four times into a black 384 well microplate and emission spectra of the solution in the range from 270 nm to 700 nm were recorded at 290 nm excitation wavelength of the Trp.
For dye NBD C12 (17) the FRET effect between the tryptophan of the HSA and the dye itself was investigated more precisely. The emission spectrum of the amino acid tryptophan overlapped with the absorption spectrum of the NBD dye, because the energy of the donor to be transferred must lie in the region of the possible energy absorption of the acceptor. This is the case when the two spectra overlap. For measurement, both solutions were employed in identical concentrations (25 μM) and the units of the fluorescence intensities (FIrel) and the absorption strength (ODrel) were standardized. An excitation wavelength of 290 nm was utilized for the emission spectrum of tryptophan.
In the next step, different concentrations of NBD C12 (17) were added to the HSA solution until a ratio of NBD to HSA of 1:1 was reached, and the emission spectra were measured.
The efficiency of the energy transfer occurring was calculated using the equation 3.4.
The distance R0, at which a 50% energy exchange takes place, was calculated according to the following equation. Furthermore, by transformation of said equation the real distance r of donor and acceptor was determined.
The fluorescence quantum yield for tryptophan is 0.15.

HSA [2] = molecular target: T1, HSA; assay: Fluorescence of NBD and dansyl dyes with increasing HSA (FRET effect, emission maxima); format: binding
Procedure: Absorption and fluorescence of fluorescence-labelled derivatives and HSA were carried out in a Varioskan™ microplate reader (Thermo Electron Corporation). 96 well (Costar, half area, flat bottom) microplates were used for absorption measurements and 384 well (Greiner Bio One, small volume, black) microplates from Greiner Bio One were used for fluorescence measurements. All measurements were carried out at pH 7.4 and room temperature.
5.00 ml of a 400 μM solution were prepared from the HSA stock solution. From this solution a geometric dilution series with 7 dilution steps, a dilution factor of 0.5 and a final volume of each concentration of 2.5 ml were prepared.
Defined concentrations of the fluorescence-labelled compounds were selected from the preceding experiment without HSA above and double-concentrated solutions thereof were prepared to take into account the later 1:1 dilution. For each fluorescence-labelled compound (12-17; 19-25) 1.00 ml of these double-concentrations was prepared. 50 μl of the dye solutions were introduced into a 96 well microplate and 50 μl each of the HSA dilution series were added. By mixing the solutions the concentrations of dye derivatives and the HSA solution were halved. The measurements of the absorption and fluorescence were carried out in analogy to the above experimental procedure without HSA.
In analogy to the absorption measurement the effect of HSA on the fluorescence of the dyes (12-17; 19-25) was determined. The same concentrations of NBD and dansyl dyes and the same concentration range for HSA as already described above were used.

HSA [3] = molecular target: T1, HSA; assay: Competition of NBD C12 (17) on HSA with ibuprofen and warfarin; format: binding; settings: from competition with warfarin and ibuprofen
Procedure: In analogy to the experiments measuring the fluorescence of the fluorescence-labelled derivatives without HSA above, the solutions were pipetted from the 96 well microplate into a 384 well microplate. […] The fluorescence measurement without a wavelength scan was carried out in analogy to the above-referenced experiment.

[4] = log D7.4 determination by RP-HPLC, similar to the water/octanol partition coefficient method; format: physicochemical; settings: pH 7.4, RP-HPLC C18, range −1 to +6
Procedure: log D7.4 values were determined by a method similar to the partition coefficient method in a water/octanol mixture and were carried out on an RP-HPLC from Waters Alliance (2795) having a C18 column (2×20 mm) with a gradient of morpholinesulfonic acid buffer (pH 7.4) and acetonitrile. The range was between −1 ([…]) to +6 (lipophilic).

[5] = HSA 25 μM, NBD to HSA up to 1:1, excitation 290 nm

T1 sequence (P02768 25-609): as above

O=C(O)CCCCCCCCCCCNc1ccc([N+](=O)[O-])c2nonc12 [NBD C12 (17), 12-(7-Nitrobenzo[1,2,5]oxadiazol-4-ylamino)dodecanoic acid]
relative binding affinity of the NBD dye for HSA (HSA [1]): greatest binding affinity; also recorded: bounds best
fluorescence of the dye on excitation of tryptophan (amino acid Trp214 of HSA; [5]): 15 FI
tryptophan emission intensity of HSA after addition of the dye (amino acid Trp214 of HSA; [5]): 82 FI
tryptophan emission intensity of HSA after addition of the dye (amino acid Trp214 of HSA; HSA 25 μM, NBD to HSA up to 1:1, excitation 290 nm, listed as NBD dye C12 (17)): 80 FI
efficiency of the energy transfer (amino acid Trp214 of HSA; calculated from I 82 FI and I0 171 FI): approximately 52%
Δλ, shift of emission maximum λem without HSA vs with HSA (HSA [2]; NBD compound 25 μM, λex = 480 nm): 16 nm
change in fluorescence intensity with increasing HSA concentration (HSA [2]; NBD derivatives 25 μM, HSA 1.56 to 200 μM, 480-550 nm, pH 7.4): increase in fluorescence intensity
binding site on HSA (HSA [3]): neither bound the Sudlow's site I nor the Sudlow's site II
chromatographic logD [4]: 2.84
log D7.4 [4]: 2.84

Reference: patent publication US20150285812A1, “Fluorescence-Labelled Fatty Acids and Uses Thereof” (SANOFI, priority 2012, published 2015)
